# From US20240261258A1, “Presurgical Perineural Administration of Resiniferatoxin For Reduction of Post-Operative Pain” (Sorrento Therapeutics, Inc., priority 2021, published 2024)
# Values joined by “and” are separate entries in the source; they are usually repeats but may differ in a detail not shown here. Equal values may be shown once.
# Experiments:
# [1] = RTX plasma concentrations after nerve block or local application; assay type: in vivo, dog; set-up: Plasma concentration: unit not given here
# Description: Fourteen adult female beagle dogs, weighing 11.9±0.6 kg and between 3-5 years of age, were enrolled in this study. Each animal was randomly assigned to one of four groups. Four dogs (group 1) received a femoral and sciatic nerve block with 12.5 μg RTX per nerve (25 μg RTX total) diluted with sterile saline for a total volume of 2 mL (half volume per block). Another four dogs (group 2) received a femoral and a sciatic nerve block with 3.12 μg RTX per nerve block (6.25 μg RTX total) diluted with sterile saline for a total volume of 2 mL (half volume per block). Group 3 (4 animals) received a femoral and sciatic nerve block with 5 mg bupivacaine total (standard of care) plus a total of 50 μg RTX (total volume of 4 mL, concentration 12.5 μg/mL) applied locally to the cut on the tibia for 10 min. Group 4 (2 animals) was the control group and received a femoral and a sciatic nerve block with 5 mg bupivacaine total (standard of care).
# Blood (4-5 mL) was collected at the beginning of the study for complete blood count and chemistry parameters. Another 2 mL sample was collected at time 0 (baseline), 5, 15, 45, 60, and 90 minutes, and at 2, 3, 4, 6, and 8 hours after RTX administration for pharmacokinetic analysis to determine how plasma levels of RTX change over time. Dog plasma samples were extracted using an organic solvent mixture, dried under nitrogen, reconstituted and analyzed by reversed-phase HPLC. The mobile phase was nebulized using heated nitrogen in a Z-spray source/interface set to electrospray positive ionization mode. The ionized compounds are detected using tandem mass spectrometry or MS/MS.
# RTX Plasma concentrations (pg/mL) were measured in the dogs following administration of RTX solution as femoral and sciatic nerve blocks.
# [2] = test system: stifle of dogs after TPLO; experiment: Radiographic, CT and MRI evaluation of bone healing; assay type: in vivo, dog; details: for Pattern of healing N (no findings), No. of Dogs / Pattern of healing S (soft tissue swelling with normal bone healing), No. of Dogs / Pattern of healing S&B (soft tissue swelling and delayed bone healing), No. of Dogs: 4 dogs
# Description: Radiographs of the stifle were performed before surgery, the day after surgery, at day 28, and at day 56. Dogs were sedated to allow for correct positioning of the leg and to minimize stress from handling. Standardized TPLO views (lateral and caudal-cranial) were acquired. An MRI and CT were also performed on the operated leg after the animals were euthanized and the surgical plate was removed (day 56).
# Orthogonal plane radiographs of the stifle were obtained for all dogs at all timepoints. After euthanasia, CT was obtained in 11 of the 14 dogs and MRI in all dogs. Metal artifact due to the presence of a broken screw prevented the evaluation of one MR study. Soft tissues could not be reliably assessed due to disruption secondary to removal of the plate. There was no evidence of implant failure or suboptimal osteotomy repair in any dog. Upon review of all imaging modalities, three patterns of healing emerged (Table 9a).
# The delay of bone healing refers to a slower bone healing process as compared to the findings in the rest of the dogs in this study. This is not to be considered as an absolute delayed bone healing since the dogs were only enrolled in the study for 56 days
structure (smiles),measurement,setting,value
"C=C(C)[C@]12C[C@@H](C)[C@@]34O[C@](Cc5ccccc5)(O[C@@H]1[C@@H]3C=C(COC(=O)Cc1ccc(O)c(OC)c1)C[C@]1(O)C(=O)C(C)=C[C@@H]41)O2 [RTX, resiniferatoxin]",Plasma concentrations for RTX,"[1]; Group 1 High Dose, 25 μg total F/Sc nerve block, 45 min, dogs 0271, 2968, 3837, 5635 in c3-c6",BQL (BQL—Below the Quantifiable Limit < 50.0 pg/mL)
same,Plasma concentrations for RTX,"[1]; Group 1 High Dose, 25 μg total F/Sc nerve block, 60 min, dogs 0271, 2968, 3837, 5635 in c3-c6",BQL (BQL—Below the Quantifiable Limit < 50.0 pg/mL)
same,Plasma concentrations for RTX,"[1]; Group 1 High Dose, 25 μg total F/Sc nerve block, 6 h, dogs 0271, 2968, 3837, 5635 in c3-c6",94.1 pg/mL and 182 pg/mL and 130 pg/mL
same,Plasma concentrations for RTX,"[1]; Group 1 High Dose, 25 μg total F/Sc nerve block, 8 h, dogs 0271, 2968, 3837, 5635 in c3-c6",62.3 pg/mL and 117 pg/mL and 99.1 pg/mL
same,Plasma concentrations for RTX,"[1]; Group 1 High Dose, 25 μg total F/Sc nerve block, Predose, dogs 0271, 2968, 3837, 5635 in c3-c6",BQL (BQL—Below the Quantifiable Limit < 50.0 pg/mL)
same,Plasma concentrations for RTX,"[1]; Group 2 Low Dose, 6.25 μg total F/Sc nerve block, 0 min, dogs 2561, 3743, 4681, 5686 in c3-c6",BQL (BQL—Below the Quantifiable Limit < 50.0 pg/mL)
same,Plasma concentrations for RTX,"[1]; Group 2 Low Dose, 6.25 μg total F/Sc nerve block, 5 min, dogs 2561, 3743, 4681, 5686 in c3-c6",BQL (BQL—Below the Quantifiable Limit < 50.0 pg/mL)
same,Plasma concentrations for RTX,"[1]; Group 2 Low Dose, 6.25 μg total F/Sc nerve block, 15 min, dogs 2561, 3743, 4681, 5686 in c3-c6",BQL (BQL—Below the Quantifiable Limit < 50.0 pg/mL)
same,Plasma concentrations for RTX,"[1]; Group 2 Low Dose, 6.25 μg total F/Sc nerve block, 45 min, dogs 2561, 3743, 4681, 5686 in c3-c6",BQL (BQL—Below the Quantifiable Limit < 50.0 pg/mL)
same,Plasma concentrations for RTX,"[1]; Group 2 Low Dose, 6.25 μg total F/Sc nerve block, 60 min, dogs 2561, 3743, 4681, 5686 in c3-c6",BQL (BQL—Below the Quantifiable Limit < 50.0 pg/mL)
same,Plasma concentrations for RTX,"[1]; Group 2 Low Dose, 6.25 μg total F/Sc nerve block, 6 h, dogs 2561, 3743, 4681, 5686 in c3-c6",BQL (BQL—Below the Quantifiable Limit < 50.0 pg/mL)
same,Plasma concentrations for RTX,"[1]; Group 2 Low Dose, 6.25 μg total F/Sc nerve block, 8 h, dogs 2561, 3743, 4681, 5686 in c3-c6",BQL (BQL—Below the Quantifiable Limit < 50.0 pg/mL)
same,Plasma concentrations for RTX,"[1]; Group 2 Low Dose, 6.25 μg total F/Sc nerve block, Predose, dogs 2561, 3743, 4681, 5686 in c3-c6",BQL (BQL—Below the Quantifiable Limit < 50.0 pg/mL)
same,Plasma concentrations for RTX,"[1]; Group 3 Local, 50 μg on bone incision, 0 min, dogs 2272, 3007, 3722, 9501 in c3-c6",BQL (BQL—Below the Quantifiable Limit < 50.0 pg/mL)
same,Plasma concentrations for RTX,"[1]; Group 3 Local, 50 μg on bone incision, 5 min, dogs 2272, 3007, 3722, 9501 in c3-c6",BQL (BQL—Below the Quantifiable Limit < 50.0 pg/mL)
same,Plasma concentrations for RTX,"[1]; Group 3 Local, 50 μg on bone incision, 15 min, dogs 2272, 3007, 3722, 9501 in c3-c6",BQL (BQL—Below the Quantifiable Limit < 50.0 pg/mL)
same,Plasma concentrations for RTX,"[1]; Group 3 Local, 50 μg on bone incision, 45 min, dogs 2272, 3007, 3722, 9501 in c3-c6",BQL (BQL—Below the Quantifiable Limit < 50.0 pg/mL)
same,Plasma concentrations for RTX,"[1]; Group 3 Local, 50 μg on bone incision, 60 min, dogs 2272, 3007, 3722, 9501 in c3-c6",BQL (BQL—Below the Quantifiable Limit < 50.0 pg/mL)
same,Plasma concentrations for RTX,"[1]; Group 3 Local, 50 μg on bone incision, 90 min, dogs 2272, 3007, 3722, 9501 in c3-c6",BQL (BQL—Below the Quantifiable Limit < 50.0 pg/mL)
same,Plasma concentrations for RTX,"[1]; Group 3 Local, 50 μg on bone incision, 2 h, dogs 2272, 3007, 3722, 9501 in c3-c6",BQL (BQL—Below the Quantifiable Limit < 50.0 pg/mL)
same,Plasma concentrations for RTX,"[1]; Group 3 Local, 50 μg on bone incision, 3 h, dogs 2272, 3007, 3722, 9501 in c3-c6",BQL (BQL—Below the Quantifiable Limit < 50.0 pg/mL)
same,Plasma concentrations for RTX,"[1]; Group 3 Local, 50 μg on bone incision, 4 h, dogs 2272, 3007, 3722, 9501 in c3-c6",BQL (BQL—Below the Quantifiable Limit < 50.0 pg/mL)
same,Plasma concentrations for RTX,"[1]; Group 3 Local, 50 μg on bone incision, 6 h, dogs 2272, 3007, 3722, 9501 in c3-c6",BQL (BQL—Below the Quantifiable Limit < 50.0 pg/mL)
same,Plasma concentrations for RTX,"[1]; Group 3 Local, 50 μg on bone incision, 8 h, dogs 2272, 3007, 3722, 9501 in c3-c6",BQL (BQL—Below the Quantifiable Limit < 50.0 pg/mL)
same,Plasma concentrations for RTX,"[1]; Group 3 Local, 50 μg on bone incision, Predose, dogs 2272, 3007, 3722, 9501 in c3-c6",BQL (BQL—Below the Quantifiable Limit < 50.0 pg/mL)
same,Plasma concentration,"[1]; Subject 2968 (group 1), 2 hour timepoint",1790
same,RTX plasma levels,[1]; all dogs that received the local application (50 μg),below the quantifiable limit at all timepoints
same,concentration at 90 min,"[1]; female, beagle, dog, plasma, 6.25 μg, Group 2 Low Dose, 6.25 μg total F/Sc nerve block, 90 min, dogs 2561, 3743, 4681, 5686 in c3-c6",0.085 ng/mL
same,concentration at 2 h,"[1]; female, beagle, dog, plasma, 6.25 μg, Group 2 Low Dose, 6.25 μg total F/Sc nerve block, 2 h, dogs 2561, 3743, 4681, 5686 in c3-c6",0.0607 ng/mL
same,concentration at 3 h,"[1]; female, beagle, dog, plasma, 6.25 μg, Group 2 Low Dose, 6.25 μg total F/Sc nerve block, 3 h, dogs 2561, 3743, 4681, 5686 in c3-c6",0.0847 ng/mL
same,concentration at 4 h,"[1]; female, beagle, dog, plasma, 6.25 μg, Group 2 Low Dose, 6.25 μg total F/Sc nerve block, 4 h, dogs 2561, 3743, 4681, 5686 in c3-c6",0.0506 ng/mL
same,concentration at 0 min,"[1]; female, beagle, dog, plasma, 25 μg, Group 1 High Dose, 25 μg total F/Sc nerve block, 0 min, dogs 0271, 2968, 3837, 5635 in c3-c6",0.397 ng/mL
same,concentration at 5 min,"[1]; female, beagle, dog, plasma, 25 μg, Group 1 High Dose, 25 μg total F/Sc nerve block, 5 min, dogs 0271, 2968, 3837, 5635 in c3-c6",0.1 ng/mL
same,concentration at 15 min,"[1]; female, beagle, dog, plasma, 25 μg, Group 1 High Dose, 25 μg total F/Sc nerve block, 15 min, dogs 0271, 2968, 3837, 5635 in c3-c6",0.0964 ng/mL
same,concentration at 90 min,"[1]; female, beagle, dog, plasma, 25 μg, Group 1 High Dose, 25 μg total F/Sc nerve block, 90 min, dogs 0271, 2968, 3837, 5635 in c3-c6",0.0551 ng/mL
same,concentration at 6 h,"[1]; female, beagle, dog, plasma, 25 μg, Group 1 High Dose, 25 μg total F/Sc nerve block, 6 h, dogs 0271, 2968, 3837, 5635 in c3-c6",0.105 ng/mL
same,concentration at 8 h,"[1]; female, beagle, dog, plasma, 25 μg, Group 1 High Dose, 25 μg total F/Sc nerve block, 8 h, dogs 0271, 2968, 3837, 5635 in c3-c6",0.0656 ng/mL
same,RTX plasma levels at last time point,[1]; high dose group (25 μg total nerve block),still detectable at 8 hours
same,Time after which RTX plasma levels fell to below detectable,[1]; low dose group (6.25 μg total nerve block),3 to 4 h
same,Time after administration until plasma levels of RTX reached detectable levels,"[1]; nerve block, regardless of dose, except one dog in group 1 (subject 5635)",at least 90 minutes
same,"Pattern of healing N (no findings), No. of Dogs",[2]; Group 1 (high dose),1
same,"Pattern of healing S (soft tissue swelling with normal bone healing), No. of Dogs",[2]; Group 1 (high dose),2
same,"Pattern of healing S&B (soft tissue swelling and delayed bone healing), No. of Dogs",[2]; Group 1 (high dose),1
same,"Pattern of healing N (no findings), No. of Dogs",[2]; Group 2 (low dose),2
same,"Pattern of healing S (soft tissue swelling with normal bone healing), No. of Dogs",[2]; Group 2 (low dose),1
same,"Pattern of healing S&B (soft tissue swelling and delayed bone healing), No. of Dogs",[2]; Group 2 (low dose),1
same,"Pattern of healing N (no findings), No. of Dogs",[2]; Group 3 (local),1
same,"Pattern of healing S (soft tissue swelling with normal bone healing), No. of Dogs",[2]; Group 3 (local),1
same,"Pattern of healing S&B (soft tissue swelling and delayed bone healing), No. of Dogs",[2]; Group 3 (local),2
same,Effect on the bone healing process,[2]; distribution of healing patterns among the treatment groups,did not adversely affect the bone healing process
